# In US20030105119A1, “Barbiturates as integrin antagonists and their use for treating inflammatory diseases” (priority 2001, published 2003):
# Target: T1, α4β7 integrin binding to human MAdCAM-1-Ig (Homo sapiens, UniProt P13612+P26010)
# T1 construct: endogenous in cells; host or cells: RPMI 8866 cells
# T1 sequence (P13612 34-1032): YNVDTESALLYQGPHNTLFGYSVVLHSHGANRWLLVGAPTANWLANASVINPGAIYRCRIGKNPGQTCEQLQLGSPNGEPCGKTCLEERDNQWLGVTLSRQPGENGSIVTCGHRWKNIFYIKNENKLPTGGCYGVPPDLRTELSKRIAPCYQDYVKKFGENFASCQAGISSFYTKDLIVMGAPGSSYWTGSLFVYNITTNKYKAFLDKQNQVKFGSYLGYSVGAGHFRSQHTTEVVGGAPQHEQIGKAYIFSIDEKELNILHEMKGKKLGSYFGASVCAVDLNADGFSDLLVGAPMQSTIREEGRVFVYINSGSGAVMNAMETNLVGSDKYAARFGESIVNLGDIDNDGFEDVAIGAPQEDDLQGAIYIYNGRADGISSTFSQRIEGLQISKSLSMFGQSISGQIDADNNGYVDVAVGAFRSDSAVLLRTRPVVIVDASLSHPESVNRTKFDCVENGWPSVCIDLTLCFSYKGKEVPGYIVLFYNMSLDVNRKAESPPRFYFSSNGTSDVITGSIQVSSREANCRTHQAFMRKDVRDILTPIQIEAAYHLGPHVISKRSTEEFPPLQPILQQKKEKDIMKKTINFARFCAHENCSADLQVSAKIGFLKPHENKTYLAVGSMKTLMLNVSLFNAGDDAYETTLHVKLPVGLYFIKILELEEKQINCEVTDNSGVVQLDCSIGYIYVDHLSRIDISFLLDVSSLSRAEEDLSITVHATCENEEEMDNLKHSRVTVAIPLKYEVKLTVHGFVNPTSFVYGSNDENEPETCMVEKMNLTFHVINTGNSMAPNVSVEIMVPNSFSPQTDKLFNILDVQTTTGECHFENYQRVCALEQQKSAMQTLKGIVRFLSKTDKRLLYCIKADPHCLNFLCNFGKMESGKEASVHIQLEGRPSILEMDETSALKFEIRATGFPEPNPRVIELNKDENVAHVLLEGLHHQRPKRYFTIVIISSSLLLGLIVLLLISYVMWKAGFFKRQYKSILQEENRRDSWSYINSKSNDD
# T1 sequence (P26010 20-798): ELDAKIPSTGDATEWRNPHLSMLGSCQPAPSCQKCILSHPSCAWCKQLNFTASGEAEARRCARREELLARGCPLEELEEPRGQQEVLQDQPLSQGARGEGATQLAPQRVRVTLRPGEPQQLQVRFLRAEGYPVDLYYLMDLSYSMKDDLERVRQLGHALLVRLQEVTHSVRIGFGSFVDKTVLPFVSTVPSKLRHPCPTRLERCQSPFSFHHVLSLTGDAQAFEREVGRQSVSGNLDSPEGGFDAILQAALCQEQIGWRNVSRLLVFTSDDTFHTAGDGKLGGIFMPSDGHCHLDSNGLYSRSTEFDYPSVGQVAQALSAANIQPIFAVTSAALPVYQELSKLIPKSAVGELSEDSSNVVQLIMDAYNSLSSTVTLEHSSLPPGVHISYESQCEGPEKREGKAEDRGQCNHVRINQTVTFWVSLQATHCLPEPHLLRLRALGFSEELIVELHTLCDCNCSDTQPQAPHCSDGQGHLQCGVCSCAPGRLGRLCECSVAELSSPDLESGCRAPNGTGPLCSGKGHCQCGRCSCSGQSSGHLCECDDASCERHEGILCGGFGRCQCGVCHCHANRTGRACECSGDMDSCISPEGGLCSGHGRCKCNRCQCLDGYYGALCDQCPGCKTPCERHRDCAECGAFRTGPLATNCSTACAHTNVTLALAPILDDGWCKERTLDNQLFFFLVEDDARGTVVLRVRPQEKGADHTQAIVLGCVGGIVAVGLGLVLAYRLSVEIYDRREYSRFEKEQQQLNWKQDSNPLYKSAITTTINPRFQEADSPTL
# Assay: Adhesion inhibition assay (BCEF-labeled RPMI 8866 cells on huMAdCAM-1-Ig coated plates)
# Assay type: cell-based
# Protocol: Biological Results. Adhesion Inhibition Assay Method
# RPMI 8866 cells are used in this assay. They are available in a medium with 10% FBS, 200 mM L-Glutamine, and penicillin/streptomycin 10x.
# 1. Coat plates (costar 3590) with a human MAdCAM-1-Ig dilution prepared in carbonate buffer (25 ng of huMAdCAM/well in 50 μl carbonate buffer) overnight at 4° C. Carbonate buffer is NaHCO3 3.44 g, Na2CO3 1.72 g, water qs 200 ml; adjust pH to 9.5, filter thru 0.2 μm and store at 4° C.
# 2. Wash plates with the plate washer (BioTeck Instruments EL404) once, using settings for washing cell rinse, with the following parameters:
# 3. Block wells with blocking buffer (10% calf serum, PBS), 100 μl/well, 37° C., 3 h.
# 4. Wash plates with the plate washer once, using settings for washing cell rinse. Use plates within 10 min after washing.
# 5. Label the RPMI 8866 cells with 2′,7′-bis-(2-carboxyethyl)-5-6-carboxy-fluorescein acetoxymethyl ester (BCEF-AM) as follows:
# spin down the cells at 1500 rpm, 10 min. Decant supernatant. Resuspend cells at 4×10^6 cells/ml sterile PBS in 50 ml polypropylene tube. Add 2 μl BCEF-AM per ml of resuspended cells. Mix well and wrap tube in aluminum foil (to exclude light). Place cells at 37° C. for 30 min to label. Spin labeled cells down (while covered in aluminum foil) at 1500 rpm, 10 min. Decant supernatant. Resuspend labeled cells in 25 ml assay buffer and centrifuge at 1500 rpm, 10 min. Resuspend labeled cells in assay buffer at 2.5×10^6 cells/ml.
# (assay buffer: HBSS, penicillin/streptomycin 10×, MnCl2 0.5 mM, Hepes 25 mM, pH=7.2)
# 6. Prepare dilutions of positive control: LDP-02 (α4β7 integrin blocking antibody) in assay buffer at 250 μg/ml and compounds of the invention in DMSO for addition to assay plates.
# 7. To polypropylene plate, add, with Multimek:
# 2.2 μl/well of 100% DMSO or compound dilutions;
# 147.8 μl/well of assay buffer to all wells;
# 50 μl/well of BCEF-labeled RPMI 8866 cells (at 2.5×10^6 cells/ml assay buffer);
# Mix well and add 180 μl of the mix to huMAdCAM-1-Ig coated plate.
# 8. Read plate in fluorescent plate reader (excite at 485 nm, read at 535 nm) and adjust the gain (total signal).
# 9. Wrap plates in aluminum foils and incubate at 25° C. for 30 min.
# 10. Wash plates with the plate washer using settings for washing cell rinse.
# 11. Read plate in fluorescent plate reader (excite at 485 nm, read at 535 nm).
# The following Table 2 summarizes the results for some of the compounds and indicates the IC50 in μM.
row,Structure (SMILES),IC50 [nM]
1,"Cc1ccccc1N1C(=O)NC(=O)/C(=C/C=C/c2ccccc2)C1=O [Example 35, 5-(3-Phenyl-allylidene)-1-o-tolyl-pyrimidine-2,4,6-trione]",2650
2,"Cc1ccc(N2C(=O)NC(=O)/C(=C\C=C\c3ccccc3)C2=O)cc1 [Example 42, 5-(3-Phenyl-allylidene)-1-p-tolyl-pyrimidine-2,4,6-trione]",2600
3,"O=C1NC(=O)N(Cc2cccnc2)C(=O)/C1=C/c1c[nH]c2ccccc12 [Example 49, 5-(1H-indol-3-ylmethylene)-1-pyridin-3-ylmethyl-pyrimidine-2,4,6-trione]",1300
4,"O=C1NC(=O)N(c2ccccc2Cl)C(=O)/C1=C\c1c[nH]c2ccccc12 [Example 18, 1-(2-Chloro-phenyl)-5-(1H-indol-3-ylmethylene)-pyrimidine-2,4,6-trione]",2500
5,"O=C1NC(=O)N(c2cccc(Cl)c2)C(=O)/C1=C/c1c[nH]c2ccccc12 [Example 37, 1-(3-Chloro-phenyl)-5-(1H-indol-3-ylmethylene)-pyrimidine-2,4,6-trione]",2750
6,"O=C1NC(=O)N(c2cccc3cccnc23)C(=O)/C1=C/C=C/c1ccccc1 [Example 51, 5-(3-Phenyl-allylidene)-1-quinolin-8-yl-pyrimidine-2,4,6-trione]",2700
7,"Cn1cc(/C=C2/C(=O)NC(=O)N(c3cccc4ccccc34)C2=O)c2ccccc21 [Example 2, 5-(1-Methyl-1H-indol-3-ylmethylene)-1-naphthalen-1-yl-pyrimidine-2,4,6-trione]",940
8,"Cc1cccc(N2C(=O)NC(=O)/C(=C\c3ccc[nH]3)C2=O)c1 [Example 24, 5-(Pyrrol-2-ylmethylene)-1-m-tolyl-pyrimidine-2,4,6-trione]",2950
9,"O=C1NC(=O)N(c2ccccc2Cl)C(=O)/C1=C\C=C\c1ccccc1 [Example 43, 1-(2-Chloro-phenyl)-5-(3-phenyl-allylidene)-pyrimidine-2,4,6-trione]",1900
10,"Cc1ccccc1N1C(=O)NC(=O)/C(=C/c2cn(C)c3ccccc23)C1=O [Example 15, 5-(1-Methyl-1H-indol-3-ylmethylene)-1-o-tolyl-pyrimidine-2,4,6-trione]",2300
11,"Cc1cccc(N2C(=O)NC(=O)/C(=C/c3c[nH]c4ccccc34)C2=O)c1 [Example 17, 5-(1H-Indol-3-ylmethylene)-1-m-tolyl-pyrimidine-2,4,6-trione]",2930
12,"O=C1NC(=O)N(c2cccc3ccccc23)C(=O)/C1=C\c1c[nH]c2ccccc12 [Example 1, 5-(1H-Indol-3-ylmethylene)-naphthalen-1-yl-pyrimidine-2,4,6-trione]",410
13,"Cc1cccc(N2C(=O)NC(=O)/C(=C\C=C\c3ccccc3)C2=O)c1 [Example 16, 5-(3-Phenyl-allylidene)-1-m-tolyl-pyrimidine-2,4,6-trione]",900
